Data on 16 molecules can be found in patent publication US6348614B1 (priority 1996, dated 2002).

The assay deals with P.infestans (A2 mating type, resistant to metalaxyl). The format is in vivo, Phytophthora infestans. To be noted: Potato, 500 ppm, 6 days after inoculation.
Turning to `CC(CC(=O)OCCCc1ccccc1)NS(=O)(=O)c1ccccc1` (stereo not shown) [compound 51, D,L N-benzensulphonyl-3-aminobutyric acid 3-phenylpropyl ester], the “Control efficacy (%) 6d” value was 76%.
Regarding `CCCCCCCOC(=O)CC(C)NC(=O)c1c(F)cccc1F` (stereo not shown) [compound 14, D,L N-2,6-difluorobenzoyl-3-aminobutyric acid heptyl ester], the “Control efficacy (%) 6d” value is recorded as 79%.
Regarding `CCCCC(C)OC(=O)CC(C)NC(=O)c1ccccc1NC` (stereo not shown) [compound 52, D,L N-2-methylaminobenzoyl-3-aminobutyric acid 1-methylpentyl ester], the “Control efficacy (%) 6d” value was found to be 74%.
For the molecule `CCCC(C)OC(=O)CC(C)NC(=O)c1ccc(C)c(C)c1` (stereo not shown) [compound 21, D,L N-3,4-dimethylbezoyl-3-aminobutyric acid 1-methylbutyl ester], the “Control efficacy (%) 6d” value came out at 73%.
With `CCCCCCCOC(=O)CC(C)NC(=O)c1ccc(OC)cc1` (stereo not shown) [compound 12, D,L N-4-methoxybenzoyl-3-aminobutyric acid heptyl ester] the figure was 89%; with `CCCCC(C)OC(=O)CC(C)NC(=O)c1ccc(-c2cccs2)cc1` (stereo not shown) [compound 49, D,L N-4-2-thiophenebenzoyl-3-aminobutyric acid 1-methylpentyl ester], 75%; with `CCC(C)OC(=O)CC(C)NS(=O)(=O)c1ccc(C)cc1` (stereo not shown) [compound 20, D,L N-4-methylbenzenesulfonyl-3-aminobutyric 1-methylpropyll ester], 75%.
Next, `CCCCCCCOC(=O)CC(C)NC(=O)c1ccc(C(C)(C)C)cc1` (stereo not shown) [compound 15, D,L N-4-tertbutylbenzoyl-3-aminobutyric acid heptyl ester]: 79%; `CCCCCCCOC(=O)CC(C)NC(=O)c1cc(C)cc(C)c1` (stereo not shown) [compound 13, D,L N-3,5-dimethylbezoyl-3-aminobutyric acid heptyl ester]: 84%; `CCCCC(C)OC(=O)CC(C)NC(=O)c1ccc(Cl)cc1` (stereo not shown) [compound 18, D,L N-4-cholrobenzoyl-3-aminobutyric acid 1-methylpentyl ester]: 76%.
With `CCCCC(C)OC(=O)CC(C)NS(=O)(=O)c1ccc(C)cc1` (stereo not shown) [compound 16, D,L N-4-methylbenzenesulfonyl-3-aminobutyric acid i-methylpentyl ester] the figure was 79%; with `CCCCCCCOC(=O)CC(C)NC(=O)c1cccc(C)c1` (stereo not shown) [compound 22, D,L N-3-methylbezoyl-3-aminobutyric acid heptyl ester], 70%; with `CCCCCCCCOC(=O)CC(C)NC(=O)c1ccc(-c2cccs2)cc1` (stereo not shown) [compound 48, D,L N-4-2-thiophenebenzoyl-3-aminobutyric acid octyl ester], 82%.
Consider `CCCCC(C)OC(=O)CC(C)NS(=O)(=O)c1ccc(Cl)cc1` (stereo not shown) [compound 50, D,L N-4-chlorobenzensulfonyl-3-aminobutyric acid 1-methylpentyl ester], for which the “Control efficacy (%) 6d” value turned out to be 77%.
Next, `CC(CC(=O)OCCCc1ccccc1)NS(=O)(=O)c1ccccc1` (stereo not shown) [compound 17, D,L N-benzenesulfonyl-3-aminobutyric acid 3-phenylpropyl ester]: 76%.
With `CC(CC(=O)OCCC(Cl)(Cl)Cl)NS(=O)(=O)c1ccccc1` (stereo not shown) [compound 19, D,L N-benzenesulfonyl-3-aminobutyric acid 2-(trichloromethyl)ethyl ester] the figure was 75%.
